Source: patent publication US6489535B1, “Non-mammalian transgenic animal having an adult onset neurodegenerative phenotype” (priority 1999, dated 2002)
Read-outs that look alike come from different tables or passages of the source.

Experiments:
AON mutant fly strain = experiment: whole plant or invertebrate; format: in vivo, Drosophila melanogaster; settings: for Phenotype AON + E: larva fed .5 μg/ml estrogen, >90% of 100 flies; as to Phenotype AON + E: key: None = normal adult fly; WC = loss of wing control; WP = wings paralyzed; C = loss of coordination and locomotion capabilities; L = flies stop uptaking liquid; D = death
Description: (§1) Each compound was prepared over a range of dilutions and each was tested for the activity of alleviating the adult onset neurodegeneration condition. The compound dilutions were uptaken by either the larva or adult flies. The compound dilutions were mixed into the nutrient media and this served as the food/water source for either larva or flies. The adult onset neurodegeneration symptoms and their timelines were monitored for each compound dilution and compared to the no treatment control. Compounds examined here included: beta-estradiol, zinc chloride, sodium chloride, water, chocolate, and phosphate buffered saline.
In addition, compounds were also tested in the AON mutant fly strain that were known not to influence human AON conditions. Finally, a complex mixture with unknown influence on human AON conditions was tested in the AON mutant fly strain.

wild-type adult flies = experiment: Wild-type flies fed estrogen, phenotype by adult age; format: in vivo, Drosophila melanogaster; settings: larva fed .5 μg/ml estrogen; also: key: None = normal adult fly; WC = loss of wing control; WP = wings paralyzed; C = loss of coordination and locomotion capabilities; L = flies stop uptaking liquid; D = death
Description: as §1

[1] = Drosophila melanogaster, po, read-out: S increased (S = AON symptom free adult time span)

Cc1c(C)c2c(c(C)c1O)CC[C@@](C)(CCC[C@H](C)CCC[C@H](C)CCCC(C)C)O2 [Alpha Tocopherol]
L.D. (AON mutant fly strain; dose 1 mg/ml): L.D. 30, | D increased (D = life span) (AON mutant fly strain; dose 1 mg/ml, escapers): increased 33% | S increased (S = AON symptom free adult time span) (AON mutant fly strain; dose 1 mg/ml, escapers): 200%, D

CN1[C@@H]2CC[C@H]1C[C@@H](OC(c1ccccc1)c1ccccc1)C2 [Benztropine]
change in vivo at 0.023 µg/mL (AON mutant fly strain; [1]): 400% | change in vivo at 0.23 µg/mL (AON mutant fly strain; [1]): 300% | change in vivo at 23 µg/mL (AON mutant fly strain; [1]): 500% | D increased (D = life span) (AON mutant fly strain; dose .000023 mg/ml): 33% | D increased (D = life span) (AON mutant fly strain; dose .00023 mg/ml): 17% | L.D., AON class (AON mutant fly strain; dose .023 mg/ml, AON class): L.D. 95, | L.D. (AON mutant fly strain; dose .23 mg/ml): L.D. 100

CC(C)C[C@H]1C(=O)N2CCC[C@H]2[C@]2(O)O[C@](NC(=O)[C@@H]3C=C4c5cccc6[nH]c(Br)c(c56)C[C@H]4N(C)C3)(C(C)C)C(=O)N12 [Bromocriptine]
change in vivo at 10 µg/mL (AON mutant fly strain; Drosophila melanogaster, po, dose .01 mg/ml, read-out: S increased (S = AON symptom free adult time span)): 33% | L.D. (AON mutant fly strain; dose .1 mg/ml): L.D. 100

CN1C(=O)CN=C(c2ccccc2)c2cc(Cl)ccc21 [Diazepam]
L.D. (AON mutant fly strain; AON mutant fly strain, Drosophila melanogaster, in vivo): L.D. 100 | result (effect on AON phenotype) (AON mutant fly strain; in vivo): No Effect

C[C@]12N[C@H](Cc3ccccc31)c1ccccc12 [Dizocilipine]
S increased (S = AON symptom free adult time span) (AON mutant fly strain; dose .00006 mg/ml): 17% | AON symptoms delayed (AON mutant fly strain; dose .0006 mg/ml): delayed 2 days | AON growth (AON mutant fly strain; dose .06 mg/ml): delayed | result (effect on AON phenotype) (AON mutant fly strain; dose .06 mg/ml): No | L.D. (AON mutant fly strain; in vivo): L.D. 100

N[C@@H](Cc1ccc(O)c(O)c1)C(=O)O [Levodopa]
change in vivo at 0.15 µg/mL (AON mutant fly strain; [1]): 100%

CCN(CC)C(=O)N[C@H]1C=C2c3cccc4[nH]cc(c34)C[C@H]2N(C)C1 [Lisuride]
change in vivo at 2 µg/mL (AON mutant fly strain; Drosophila melanogaster, po, dose .002 mg/ml, read-out: S increased (S = AON symptom free adult time span)): 100% | L.D. (AON mutant fly strain; dose 2 mg/ml): L.D. 100 | L.D. (AON mutant fly strain; dose .002 mg/ml): L.D. 60, S | L.D. (AON mutant fly strain; dose .02 mg/ml, (no AON flies)): L.D. 99 (no | L.D. (AON mutant fly strain; dose .2 mg/ml): L.D. 100

COc1ccc2[nH]cc(CCNC(C)=O)c2c1 [Melatonin]
L.D. (AON mutant fly strain; dose 5 mg/ml): L.D. 100 | result (effect on AON phenotype) (AON mutant fly strain; dose .0005 mg/ml): No Effect | result (effect on AON phenotype) (AON mutant fly strain; dose .005 mg/ml): No Effect | result (effect on AON phenotype) (AON mutant fly strain; dose .05 mg/ml): No Effect | result (effect on AON phenotype) (AON mutant fly strain; dose .5 mg/ml): No Effect

NC(=O)c1cccnc1 [Nicotinamide]
change in vivo at 5000 µg/mL (AON mutant fly strain; [1]): 100% | L.D. (AON mutant fly strain; dose 5 mg/ml): L.D. 90, S

CCCn1cnc2c1c(=O)n(CCCCC(C)=O)c(=O)n2C [Propentofylline]
change in vivo at 5000 µg/mL (AON mutant fly strain; [1]): 200% | L.D. (AON mutant fly strain; dose 5 mg/ml): L.D. 80, | D increased (D = life span) (AON mutant fly strain; dose 5 mg/ml, escapers): 17%

Nc1nc2ccc(OC(F)(F)F)cc2s1 [Riluzole]
change in vivo at 10 µg/mL (AON mutant fly strain; [1]): 100% | D increased (D = life span) (AON mutant fly strain; dose .01 mg/ml): increased 17%

C#CCN(C)[C@H](C)Cc1ccccc1 [Selegiline]
change in vivo at 0.2 µg/mL (AON mutant fly strain; Drosophila melanogaster, po, dose .0002 mg/ml, read-out: S increased (S = AON symptom free adult time span)): 200% | change in vivo at 20 µg/mL (AON mutant fly strain; Drosophila melanogaster, po, dose .02 mg/ml, read-out: S increased (S = AON symptom free adult time span)): 100% | L.D. (AON mutant fly strain; dose 2 mg/ml): L.D. 100 | L.D., AON class only (AON mutant fly strain; dose .2 mg/ml, AON class only): only, L.D. 95, | result (effect on AON phenotype) (AON mutant fly strain; dose .2 mg/ml, escapers): No Effect

Nc1c2c(nc3ccccc13)CCCC2 [Tacrine]
change in vivo at 0.5 µg/mL (AON mutant fly strain; [1]): 100%

OC(CCN1CCCCC1)(c1ccccc1)C1CCCCC1 (centres unmarked) [Trihexyphenidyl]
change in vivo at 100 µg/mL (AON mutant fly strain; [1]): ~25% | change in vivo at 1000 µg/mL (AON mutant fly strain; [1]): 33%

[Cl-].[Cl-].[Zn+2] [Zinc, zinc chloride]
effect on the AON condition (AON mutant fly strain; higher concentrations, 50-100 μgrams/ml of nutrient media, oral): exacerbated the AON condition | effect on the mutant AON fly strain (AON mutant fly strain; low concentrations, 10-20 μgrams/ml of nutrient media, oral): no effect was observed

CCCN1C[C@H](CSC)C[C@@H]2c3cccc4[nH]cc(c34)C[C@H]21 [pergolide]
effect in the AON fly drug screening (AON mutant fly strain; dose not stated): did not show any effect

[Cl-].[Na+] [sodium chloride]
effect on the AON phenotype in the mutant fly strain (AON mutant fly strain; oral, dose not stated): no effect

beta-estradiol [Estrogen]
effect on the AON condition in the mutant fly strain (AON mutant fly strain; administered orally): alleviates the AON condition | Phenotype AON + E (AON mutant fly strain; age of adult 0-1 hours): None | Phenotype AON + E (AON mutant fly strain; age of adult 1-3 hours): None | D increased (D = life span) (AON mutant fly strain; dose 5 mg/ml): increased 68% | S increased (S = AON symptom free adult time span) (AON mutant fly strain; dose 5 mg/ml): 100%, D | S increased (S = AON symptom free adult time span) (AON mutant fly strain; dose .5 mg/ml): 200% | Phenotype Wt + E (wild-type adult flies; age of adult 0-1 hours): None | Phenotype Wt + E (wild-type adult flies; age of adult 1-3 hours): None | Phenotype Wt + E (wild-type adult flies; age of adult 3-24 hours): None | Phenotype Wt + E (wild-type adult flies; age of adult 24-36 hours): None | Phenotype Wt + E (wild-type adult flies; age of adult 36-72 hours): None | Phenotype Wt + E (wild-type adult flies; age of adult 72-144 hours): None | Phenotype Wt + E (wild-type adult flies; age of adult 144+ hours): None
